A word on the MIC80: it is the lowest concentration that inhibits either 80% of growth or 80% of the strains tested, depending on the study.

This note sets out measurements from ChEMBL document CHEMBL5625249, “Optimization and antifungal activity of quinoline derivatives linked to chalcone moiety combined with FLC against Candida albicans” (Eur J Med Chem, 2023).

Common to all, as to assay type: functional
Experiment [1] concerns Candida albicans. As to the kind of experiment: Antifungal activity against FLC-sensitive Candida albicans SC5314 measured after 24 hrs by microdilution method.
In experiment [2] the test system is Candida albicans. As to the kind of experiment: Synergistic antifungal activity against FLC-sensitive Candida albicans SC5314 measured after 24 hrs in presence of fluconazole by microdilution method. (In general: Broth dilution looks for growth in wells or tubes with falling amounts of substance.)
The test system of experiment [3] is Candida albicans. Description: Antifungal activity against Clinical FLC-resistant Candida albicans 23 measured after 24 hrs by microdilution method.
The test system of experiment [4] is Candida albicans. Description: Synergistic antifungal activity against Clinical FLC-resistant Candida albicans 23 measured after 24 hrs in presence of fluconazole by microdilution method.
Experiment [5] deals with Candida albicans. Description: Synergistic antifungal activity against FLC-sensitive Candida albicans SC5314 assessed as fractional inhibitory concentration index measured after 24 hrs in presence of fluconazole by microdilution method.
The test system of experiment [6] is Candida albicans. As to the kind of experiment: Synergistic antifungal activity against Clinical FLC-resistant Candida albicans 23 assessed as fractional inhibitory concentration index measured after 24 hrs in presence of fluconazole by microdilution method.

Some results are limits rather than exact numbers.

Consider `CN1CCN(c2nc3ccccc3cc2/C=C/C(=O)c2ccc(N3CCN(Cc4ccc(F)c(F)c4)CC3)cc2)CC1`, for which the MIC80 is greater than 40 µg/mL against Candida albicans [1], 2.06 µg/mL with Candida albicans [2], greater than 40 µg/mL against Candida albicans [3] and 6.18 µg/mL in the experiment with Candida albicans [4]. The “fractional inhibitory concentration index (FICI)” value in the experiment on Candida albicans [5] worked out at 0.38; in the experiment with Candida albicans [6], 0.15.

With `COC(=O)CN1CCN(c2ccc(C(=O)/C=C/c3cc4ccccc4nc3N3CCN(C)CC3)cc2)CC1`, the MIC80 was greater than 40 µg/mL in the experiment with Candida albicans [1], 14.1 µg/mL in the experiment with Candida albicans [2], greater than 40 µg/mL with Candida albicans [3] and greater than 40 µg/mL with Candida albicans [4]. The “fractional inhibitory concentration index (FICI)” value in the experiment with Candida albicans [5] stood at 2.6.

For `C=CC(=O)N1CCN(c2ccc(C(=O)/C=C/c3cc4ccccc4nc3N3CCN(C)CC3)cc2)CC1`, the MIC80 with Candida albicans [1] was greater than 40 µg/mL; in the experiment on Candida albicans [2] it was 4.11 µg/mL; in the experiment on Candida albicans [3] it was greater than 40 µg/mL; in the experiment on Candida albicans [4] it was 26.4 µg/mL. Moreover, the “fractional inhibitory concentration index (FICI)” value in the experiment with Candida albicans [5] was 0.76; in the experiment with Candida albicans [6] it was 0.66.

In the case of `CN1CCN(c2nc3ccccc3cc2/C=C/C(=O)c2ccc(N3CCN(C(=O)CCCl)CC3)cc2)CC1`, the MIC80 against Candida albicans [1], in the experiment with Candida albicans [2], with Candida albicans [3] and with Candida albicans [4] was greater than 40 µg/mL in each case.

As for `Cc1ccc(C(=O)CN2CCN(c3ccc(C(=O)/C=C/c4cc5ccccc5nc4N4CCN(C)CC4)cc3)CC2)cc1`, the MIC80 is greater than 40 µg/mL against Candida albicans [1], 5.68 µg/mL in the experiment with Candida albicans [2], greater than 40 µg/mL in the experiment with Candida albicans [3] and 33.4 µg/mL in the experiment on Candida albicans [4]. Further, the figures for the “fractional inhibitory concentration index (FICI)” value in the experiment with Candida albicans [5] and with Candida albicans [6] were 1.05 and 0.83, respectively.

`CN1CCN(c2nc3ccccc3cc2/C=C/C(=O)c2ccc(N3CCN(C(=O)c4ccc(F)cc4)CC3)cc2)CC1`: the MIC80 with Candida albicans [1] was greater than 40 µg/mL; in the experiment on Candida albicans [2], 0.88 µg/mL; against Candida albicans [3] it was greater than 40 µg/mL; in the experiment with Candida albicans [4] it was 3.43 µg/mL. For the same molecule, the entries for the “fractional inhibitory concentration index (FICI)” value in the experiment with Candida albicans [5] and in the experiment with Candida albicans [6] were 0.16 and 0.09, respectively.

As for `CN1CCN(c2nc3ccccc3cc2/C=C/C(=O)c2ccc(N3CCN(C(=O)c4ccc(Cl)cc4)CC3)cc2)CC1`, the MIC80 against Candida albicans [1] is greater than 40 µg/mL; in the experiment on Candida albicans [2], 0.64 µg/mL; in the experiment on Candida albicans [3] it was greater than 40 µg/mL; with Candida albicans [4], 1.49 µg/mL. Moreover, the “fractional inhibitory concentration index (FICI)” value with Candida albicans [5] was determined as 0.12; in the experiment with Candida albicans [6], 0.04.

Turning to `C=C(C)C(=O)N1CCN(c2ccc(C(=O)/C=C/c3cc4ccccc4nc3N3CCN(C)CC3)cc2)CC1`, the MIC80 is greater than 40 µg/mL against Candida albicans [1], 3.71 µg/mL in the experiment with Candida albicans [2], greater than 40 µg/mL in the experiment with Candida albicans [3] and 4.93 µg/mL with Candida albicans [4]. The “fractional inhibitory concentration index (FICI)” value in the experiment with Candida albicans [5] worked out at 0.69; in the experiment on Candida albicans [6], 0.12.

Turning to `CC(=O)N1CCN(c2ccc(C(=O)/C=C/c3cc4ccccc4nc3N3CCN(C)CC3)cc2)CC1`, the MIC80 against Candida albicans [1], in the experiment on Candida albicans [2], against Candida albicans [3] and in the experiment on Candida albicans [4] was greater than 40 µg/mL throughout.

Turning to `Cc1ccc(S(=O)(=O)N2CCN(c3ccc(C(=O)/C=C/c4cc5ccccc5nc4N4CCN(C)CC4)cc3)CC2)cc1`, the MIC80 was greater than 40 µg/mL in the experiment on Candida albicans [1], greater than 40 µg/mL in the experiment with Candida albicans [2], greater than 40 µg/mL in the experiment with Candida albicans [3] and 8.08 µg/mL with Candida albicans [4]. Besides, the “fractional inhibitory concentration index (FICI)” value in the experiment with Candida albicans [6] turned out to be 0.2.

Consider `CN1CCN(c2nc3ccccc3cc2/C=C/C(=O)c2ccc(N3CCNCC3)cc2)CC1`, for which the MIC80 in the experiment with Candida albicans [1] was greater than 40 µg/mL; in the experiment on Candida albicans [2], 2.56 µg/mL; against Candida albicans [3], greater than 40 µg/mL; in the experiment on Candida albicans [4], 24 µg/mL. For the same molecule, the “fractional inhibitory concentration index (FICI)” value in the experiment with Candida albicans [5] is 0.47; in the experiment on Candida albicans [6], 0.6.

For `CN1CCN(c2nc3ccccc3cc2/C=C/C(=O)c2ccc(N3CCN(S(C)(=O)=O)CC3)cc2)CC1`, the MIC80 against Candida albicans [1] is greater than 40 µg/mL; in the experiment with Candida albicans [2], 28.1 µg/mL; with Candida albicans [3] it was greater than 40 µg/mL; in the experiment on Candida albicans [4], 22.5 µg/mL. The entries for the “fractional inhibitory concentration index (FICI)” value in the experiment on Candida albicans [5] and in the experiment on Candida albicans [6] were 5.2 and 0.56, respectively.

For `CN1CCN(c2nc3ccccc3cc2/C=C/C(=O)c2ccc(N3CCN(S(=O)(=O)c4ccc(F)cc4)CC3)cc2)CC1`, the MIC80 with Candida albicans [1] was greater than 40 µg/mL; with Candida albicans [2], 18.3 µg/mL; against Candida albicans [3], greater than 40 µg/mL; in the experiment with Candida albicans [4], 1.14 µg/mL. The “fractional inhibitory concentration index (FICI)” value amounted to 3.39 in the experiment with Candida albicans [5] and 0.03 in the experiment on Candida albicans [6].

As for `CN1CCN(c2nc3ccccc3cc2/C=C/C(=O)c2ccc(N3CCN(CC(=O)c4ccc(Cl)c(Cl)c4)CC3)cc2)CC1`, the MIC80 was greater than 40 µg/mL in the experiment on Candida albicans [1], 17 µg/mL in the experiment with Candida albicans [2], greater than 40 µg/mL against Candida albicans [3] and 36.2 µg/mL with Candida albicans [4]. Further, the results for the “fractional inhibitory concentration index (FICI)” value in the experiment with Candida albicans [5] and with Candida albicans [6] were 3.14 and 0.91, respectively.

`CN1CCN(c2nc3ccccc3cc2/C=C/C(=O)c2ccc(N3CCN(S(=O)(=O)C4CC4)CC3)cc2)CC1`: the MIC80 was greater than 40 µg/mL in the experiment on Candida albicans [1], 4.93 µg/mL in the experiment on Candida albicans [2], greater than 40 µg/mL in the experiment on Candida albicans [3] and 6.03 µg/mL in the experiment on Candida albicans [4]. In addition, the “fractional inhibitory concentration index (FICI)” value was 0.91 with Candida albicans [5] and 0.15 in the experiment with Candida albicans [6].

Take `CN1CCN(c2nc3ccccc3cc2/C=C/C(=O)c2ccc(N3CCN(S(=O)(=O)c4ccc([N+](=O)[O-])cc4)CC3)cc2)CC1`: the MIC80 against Candida albicans [1] was greater than 40 µg/mL; with Candida albicans [2], 17.8 µg/mL; against Candida albicans [3], greater than 40 µg/mL; in the experiment with Candida albicans [4], greater than 40 µg/mL. For the same molecule, the “fractional inhibitory concentration index (FICI)” value in the experiment on Candida albicans [5] is given as 3.3.

As for `CN1CCN(c2nc3ccccc3cc2/C=C/C(=O)c2ccc(N3CCN(Cc4ccc(C#N)cc4)CC3)cc2)CC1`, the MIC80 against Candida albicans [1] was greater than 40 µg/mL; in the experiment with Candida albicans [2] it was 4.73 µg/mL; against Candida albicans [3], greater than 40 µg/mL; with Candida albicans [4], 5.4 µg/mL. In addition, the “fractional inhibitory concentration index (FICI)” value is 0.88 with Candida albicans [5] and 0.14 with Candida albicans [6].

Turning to `CN1CCN(c2nc3ccccc3cc2/C=C/C(=O)c2ccc(N3CCN(S(=O)(=O)c4ccc(C(F)(F)F)cc4)CC3)cc2)CC1`, the MIC80 with Candida albicans [1] was greater than 40 µg/mL; with Candida albicans [2], greater than 40 µg/mL; with Candida albicans [3], greater than 40 µg/mL; in the experiment on Candida albicans [4], 1.15 µg/mL. Besides, the “fractional inhibitory concentration index (FICI)” value in the experiment with Candida albicans [6] is given as 0.03.

In the case of `COc1ccc(C(=O)CN2CCN(c3ccc(C(=O)/C=C/c4cc5ccccc5nc4N4CCN(C)CC4)cc3)CC2)cc1OC`, the MIC80 with Candida albicans [1] is greater than 40 µg/mL; in the experiment with Candida albicans [2], 5.5 µg/mL; in the experiment with Candida albicans [3] it was greater than 40 µg/mL; with Candida albicans [4] it was 28.1 µg/mL. Moreover, the “fractional inhibitory concentration index (FICI)” value in the experiment with Candida albicans [5] is recorded as 1.01; in the experiment with Candida albicans [6] it was 0.7.

Turning to `CN1CCN(c2nc3ccccc3cc2/C=C/C(=O)c2ccc(N3CCN(S(=O)(=O)c4ccc(OC(F)(F)F)cc4)CC3)cc2)CC1`, the MIC80 is greater than 40 µg/mL against Candida albicans [1], 4.31 µg/mL in the experiment on Candida albicans [2], greater than 40 µg/mL against Candida albicans [3] and 4.05 µg/mL in the experiment with Candida albicans [4]. The “fractional inhibitory concentration index (FICI)” value in the experiment on Candida albicans [5] was found to be 0.8; in the experiment on Candida albicans [6] it was 0.1.

Turning to `CN1CCN(c2nc3ccccc3cc2/C=C/C(=O)c2ccc(N3CCN(S(=O)(=O)c4ccc(Cl)c(C(F)(F)F)c4)CC3)cc2)CC1`, the MIC80 in the experiment on Candida albicans [1] is greater than 40 µg/mL; in the experiment on Candida albicans [2], 5.31 µg/mL; against Candida albicans [3] it was greater than 40 µg/mL; with Candida albicans [4], 26.8 µg/mL. Further, the “fractional inhibitory concentration index (FICI)” value with Candida albicans [5] worked out at 0.98; in the experiment on Candida albicans [6], 0.67.

Turning to `CN1CCN(c2nc3ccccc3cc2/C=C/C(=O)c2ccc(N3CCN(C(=O)/C=C/c4ccccc4)CC3)cc2)CC1`, the MIC80 with Candida albicans [1] was greater than 40 µg/mL; in the experiment on Candida albicans [2] it was greater than 40 µg/mL; in the experiment with Candida albicans [3] it was greater than 40 µg/mL; in the experiment with Candida albicans [4] it was 5.83 µg/mL. For the same molecule, the “fractional inhibitory concentration index (FICI)” value with Candida albicans [6] is 0.15.

Take `CN1CCN(c2nc3ccccc3cc2/C=C/C(=O)c2ccc(N3CCN(CC(=O)c4ccc(F)cc4)CC3)cc2)CC1`: the MIC80 is greater than 40 µg/mL in the experiment with Candida albicans [1], 6.74 µg/mL with Candida albicans [2], greater than 40 µg/mL with Candida albicans [3] and greater than 40 µg/mL with Candida albicans [4]. The “fractional inhibitory concentration index (FICI)” value in the experiment on Candida albicans [5] is listed as 1.25.
